Test results published in article PMC9619402 (Journal of Medicinal Chemistry, 2022).
Values after ≈ are worked out from the molar mass of the structure shown. Read-outs that look alike come from different tables or passages of the source. Marks after values point to notes of the source that are not given here.

Experiments:
[1] = system: 468 kinases (scanMax panel); assay: Eurofins/DiscoverX scanMax panel (KINOMEscan) kinome profile; assay type: binding; conditions: fraction of kinases bound >50%
[2] = molecular target: LIMK1 (LIMK1_330–637, kinase catalytic domain) (Homo sapiens, UniProt P53667); conditions: for preference between LIMK1 and LIMK2: RapidFire, LIMK1 versus LIMK2, at best
[3] = molecular target: LIMK2 (LIMK2_347–659, kinase catalytic domain) (Homo sapiens, UniProt P53671); assay type: biochemical
[4] = molecular target: PAK pLIMK2 (PAK-phosphorylated LIMK2) (Homo sapiens, UniProt P53671); assay type: biochemical; conditions: 6 nM LIMK2 + 0.2 nM PAK1 kinase domain; mean ± SEM
[5] = molecular target: PAK pLIMK1 (PAK-phosphorylated LIMK1) (Homo sapiens, UniProt P53667); assay: RapidFire mass spectrometry kinase assay, PAK-phosphorylated LIMK1; conditions: 5 nM LIMK1 + 0.4 nM PAK1 kinase domain; mean ± SEM
[6] = system: p-cofilin levels in SH-SY5Y cells; assay: cells; conditions: Homo sapiens, 2 h, read-out: AlphaLISA pIC50 p-cofilin (converted)
Protocol: SH-SY5Y cells were plated into a 96-well plate at 20,000 cells/well. The next day, compounds were prepared in an 8-point, 3-fold serial dilution in DMSO and then further diluted to 20-fold in DMEM/F12 with 10% FBS, 1% antibiotics. SH-SY5Y cell media was replaced with fresh DMEM/F12 media containing 10% FBS and 1% antibiotics. Compounds were added to the SH-SY5Y cells in duplicate at a final compound concentration of 10 μM to 3 nM. LIMKi3 (10 μM) was used as a positive control and 0.5% DMSO was used as a negative control. Cells were placed in the incubator for 2 h, after which the media was removed, and the cells were lysed using 50 μL of AlphaLISA 1× lysis buffer (Perkin Elmer) containing protease inhibitor cocktail (Sigma-Aldrich, Dorset, U.K.) and Pierce phosphatase inhibitor cocktail (Thermofisher, U.K.). Cells were placed on a plate shaker at 350 rpm at RT. Ten microliters of total cell lysate was then transferred to a clean, flat-bottom, white 384-well plate. An acceptor bead solution was made consisting of reaction buffer 1, reaction buffer 2, activation buffer, and acceptor beads from the p-Cofilin SureFire Ultra assay kit (Perkin Elmer, Cat# ALSU-PCOF-A500). To each well in the assay, 5 μL of the acceptor mix was added to the wells under dim light; the plate was placed on a plate shaker for 2 min at 450 rpm, centrifuged briefly, and the plate was incubated at RT for 1 h. A donor solution, consisting of dilution buffer and donor beads, was added at 5 μL/well, mixed on a plate shaker, centrifuged briefly, and incubated at RT for 1 h. Finally, the plate was read on a Pherastar reader (BMG Labtech Ltd., Aylesbury, U.K.) using an AlphaLISA cartridge and AlphaLISA plate settings.

[7] = molecular target: T1, LIMK2 (NanoLuc LIMK2 kinase fusion) (Homo sapiens, UniProt P53671); assay type: cell-based; conditions: HEK293 cells, 2 h; mean ± SEM
T1 construct: host or cells: HEK293
Protocol: (§1) HEK293 cells were resuspended in growth media following routine trypsinization, neutralization, and sedimentation techniques. Cell density was adjusted to 1 ×10^5 cells/mL for each transfection in a total of 25 mL media. The transfection mix was added directly to the cells and mixed gently by inversion. The cells were then plated into T-75 tissue culture flasks and incubated for 20 h.
(§2) Kit components were purchased from Promega (Hampshire, U.K.). […] NanoBRET Tracer #10 (27.5 μL) was diluted in 192.5 μL of DMSO for use as a positive control, which was further diluted with 880 μL of tracer dilution buffer. For negative control, 20 μL of DMSO was added to 80 μL of tracer dilution buffer. LIMK1/2-transfected HEK293 cells were trypsinized, centrifuged, and resuspended in 10 mL of Opti-MEM. Extracellular NanoLuc inhibitor was added at 1:10,000 dilution to the cells, after which 85 μL of cells/well were plated into flat-bottomed, white, 96-well plates. For positive control wells, 5 μL of NanoBRET Tracer #10 was added to wells without compound. For negative controls, the DMSO/tracer dilution buffer solution was added to wells without compound. For test compounds, 10 μL of diluted compounds from the intermediate plate were added in duplicate or DMSO (for control wells) at a final concentration of 0.5% DMSO in Opti-MEM. Plates were incubated at 37 °C and 5% CO2 for 2 h. […] A solution of Nano-Glo substrate was made consisting of 72 μL of Nano-Glo substrate and 11.93 mL of Opti-MEM (without phenol red) and mixed gently by inversion 5–10 times.

[8] = molecular target: T2, LIMK1 (NanoLuc LIMK1 kinase fusion) (Homo sapiens, UniProt P53667); assay type: cell-based; conditions: HEK293 cells, 2 h; mean ± SEM
T2 construct: host or cells: HEK293
Protocol: as §1, §2

In vivo DMPK, IV dosing = conditions: male, Sprague-Dawley, rat
Protocol: In vivo studies were carried out under appropriate licenses at Pharmidex (U.K.), Sygnature Discovery (U.K.), or Sai Life (India) using male Sprague-Dawley rats. […] Serial plasma samples were obtained at predetermined time points and then stored at −20 °C. Samples were then thawed, protein-precipitated with acetonitrile followed by LCMS/MS quantification.

Caco-2 permeability = assay type: in vitro ADME; conditions: for efflux ratio: Caco-2, Table S1
[9] = Microsomal stability, rat microsomes; conditions: pH 7.4
Protocol: (§3) After mixing thoroughly, the T = 0 sample (40 μL) was immediately quenched into an 80 μL ice-cold methanol containing a 4 μM internal standard (carbamazepine). Three further samples were quenched in the same way at T = 3, 9, and 30 min. Samples were incubated on ice for 30 min before centrifugation at 4700 rpm for 20 min. The supernatant was analyzed via LCMS/MS, and compound/carbamazepine peak area ratios were calculated to determine the rate of substrate depletion.

Thermodynamic solubility = assay type: physicochemical; conditions: pH 7, PBS, 24 h room temperature; average of two experiments; read-out: aq. solubility
Protocol: The samples were then centrifuged at >10,000 rpm for 10 min to pellet any remaining solid. […] To prepare the standard, an 8-point, 1:3 dilution curve was prepared in DMSO with a top concentration of 1 mM, which was then diluted to 1:100 in acetonitrile containing 2 μM of carbamazepine. Standards and samples were analyzed via LCMS/MS. The compound carbamazepine peak area ratios were calculated, and the test article solubility was determined by interpolation from the standard curve.

[10] = Microsomal stability, human microsomes; conditions: pH 7.4
Protocol: as §3

[11] = 40 nM LIMK1 catalytic domain, 4 μM CFL1, 2 mM ATP, mean ± SEM, at least three experiments unless footnoted, pIC50 greater than 7.7 treat with caution
[12] = 15 nM LIMK2 catalytic domain, 4 μM CFL1, 2 mM ATP, mean ± SEM, pIC50 greater than 8.1 treat with caution

T2 sequence (P53667 whole entry, the tested form may be a part): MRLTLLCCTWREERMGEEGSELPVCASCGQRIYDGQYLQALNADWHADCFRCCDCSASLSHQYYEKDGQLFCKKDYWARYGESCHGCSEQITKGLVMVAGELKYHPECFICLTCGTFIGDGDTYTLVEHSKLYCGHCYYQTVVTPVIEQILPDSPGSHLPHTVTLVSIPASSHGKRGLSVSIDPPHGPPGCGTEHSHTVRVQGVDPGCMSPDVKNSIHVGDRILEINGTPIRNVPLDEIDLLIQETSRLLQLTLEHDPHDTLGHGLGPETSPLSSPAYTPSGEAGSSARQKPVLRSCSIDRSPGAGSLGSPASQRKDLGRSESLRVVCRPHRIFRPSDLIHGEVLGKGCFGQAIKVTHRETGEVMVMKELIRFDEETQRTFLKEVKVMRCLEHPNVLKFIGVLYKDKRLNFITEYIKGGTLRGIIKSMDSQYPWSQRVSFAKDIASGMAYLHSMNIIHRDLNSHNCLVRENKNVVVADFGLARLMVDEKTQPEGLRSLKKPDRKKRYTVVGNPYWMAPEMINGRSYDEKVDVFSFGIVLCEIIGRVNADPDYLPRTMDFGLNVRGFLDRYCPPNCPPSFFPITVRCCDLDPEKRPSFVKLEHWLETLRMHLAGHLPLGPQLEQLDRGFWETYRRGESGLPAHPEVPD
Sequence of LIMK1 (LIMK1_330–637, kinase catalytic domain) (P53667 330-637): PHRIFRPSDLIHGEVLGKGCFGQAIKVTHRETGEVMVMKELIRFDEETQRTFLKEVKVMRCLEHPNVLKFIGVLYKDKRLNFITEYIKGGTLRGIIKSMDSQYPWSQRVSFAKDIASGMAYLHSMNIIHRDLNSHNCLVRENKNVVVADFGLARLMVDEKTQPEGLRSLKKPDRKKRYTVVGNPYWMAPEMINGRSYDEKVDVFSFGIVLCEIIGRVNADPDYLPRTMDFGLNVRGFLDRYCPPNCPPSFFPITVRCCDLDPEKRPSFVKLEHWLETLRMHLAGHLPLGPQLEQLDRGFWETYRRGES
Sequence of PAK pLIMK1 (PAK-phosphorylated LIMK1) (P53667 330-637): as above
Sequence of PAK pLIMK2 (PAK-phosphorylated LIMK2) (P53671 326-638 limits assumed): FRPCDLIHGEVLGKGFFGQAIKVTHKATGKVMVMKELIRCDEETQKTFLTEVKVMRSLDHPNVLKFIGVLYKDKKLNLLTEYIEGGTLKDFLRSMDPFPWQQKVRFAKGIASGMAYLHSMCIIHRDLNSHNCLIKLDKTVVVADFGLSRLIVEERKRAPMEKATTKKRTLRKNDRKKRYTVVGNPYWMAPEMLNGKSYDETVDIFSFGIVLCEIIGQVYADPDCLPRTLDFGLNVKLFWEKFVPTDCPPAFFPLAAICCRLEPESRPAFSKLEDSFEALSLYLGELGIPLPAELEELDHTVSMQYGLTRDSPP
Sequence of LIMK2 (LIMK2_347–659, kinase catalytic domain) (P53671 326-638 limits assumed): as above
T1 sequence (P53671 whole entry, the tested form may be a part): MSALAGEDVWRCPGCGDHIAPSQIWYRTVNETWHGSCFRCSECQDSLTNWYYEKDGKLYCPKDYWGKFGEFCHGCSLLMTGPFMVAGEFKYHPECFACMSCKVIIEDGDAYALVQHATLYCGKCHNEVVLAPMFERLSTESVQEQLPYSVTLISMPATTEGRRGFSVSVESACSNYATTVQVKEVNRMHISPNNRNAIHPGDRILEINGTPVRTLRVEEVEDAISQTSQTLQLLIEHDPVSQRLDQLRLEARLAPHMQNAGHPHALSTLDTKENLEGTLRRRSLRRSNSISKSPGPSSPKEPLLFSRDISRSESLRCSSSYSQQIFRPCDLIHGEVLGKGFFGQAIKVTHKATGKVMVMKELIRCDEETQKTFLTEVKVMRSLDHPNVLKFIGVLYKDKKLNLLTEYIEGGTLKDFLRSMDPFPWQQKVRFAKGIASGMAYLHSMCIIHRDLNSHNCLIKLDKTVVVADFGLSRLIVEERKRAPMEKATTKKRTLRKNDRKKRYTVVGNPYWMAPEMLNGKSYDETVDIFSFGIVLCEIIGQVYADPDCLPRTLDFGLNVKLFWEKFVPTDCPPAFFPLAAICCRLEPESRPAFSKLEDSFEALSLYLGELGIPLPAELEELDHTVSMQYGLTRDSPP

Row | SMILES | RapidFire pIC50 LIMK1 [2, 11] | RapidFire pIC50 LIMK2 [3, 12] | RapidFire pIC50 PAK pLIMK2 [4] | RapidFire pIC50 PAK pLIMK1 [5] | IC50 [6] | NanoBRET pIC50 LIMK2 [7] | NanoBRET pIC50 LIMK1 [8] | further results
1 | CCn1c(=O)c(-c2ccc(Cl)cc2Cl)cc2cnc(Nc3ccc(N4CCNCC4)c(F)c3)nc21 [Compound 1] | – | – | – | – | – | – | – | kinome S50 ([1]; 1000 nM): 0.54 (468, 1000 nM)
2 | O=C(Nc1ncc(-c2cc(C(F)F)nn2-c2c(Cl)cccc2Cl)s1)C1CC1 [Compound 2] | 7.75 ± 0.04 | 7.52 ± 0.04 | 6.56 ± 0.06 | 7.00 ± 0.03 | 0.0398 µM | 7.79 ± 0.02 | 7.09 ± 0.08 | –
3 | CCNC(=O)Nc1ncc(-c2cc(-c3c(C)cc(OC)cc3C)nc(-c3cnccn3)n2)s1 [Compound 3] | 7.25 ± 0.06 | 6.87 ± 0.10 | 6.15 ± 0.04 | 5.64 ± 0.06 | 0.457 µM | 6.33 ± 0.12 | 6.45 ± 0.14 | –
4 | CC(C)C(=O)Nc1ncc(-c2cc(C(F)F)nn2-c2c(Cl)cccc2Cl)s1 [Compound 4] | – | – | – | – | – | – | – | Vd (In vivo DMPK, IV dosing): 2 L/kg; half-life (In vivo DMPK, IV dosing; 0.2 mg/kg): 1.1 h; Papp A→B (Caco-2 permeability; human, Caco-2, A – B): 88 nm/s; Papp B→A (Caco-2 permeability; human, Caco-2, B – A): 124 nm/s
5 | Cc1c[nH]c2ncnc(N3CCN(C(=O)Nc4cccc(OC(=O)N(C)C)c4)[C@@H](C)C3)c12 [Compound 6] | – | – | 7.68 ± 0.07 | 7.68 ± 0.04 | 0.00302 µM | 8.61 ± 0.04 | 8.28 ± 0.08 | RapidFire pIC50 LIMK1 [2]: 8.70 ± 0.07; RapidFire pIC50 LIMK2 [3]: 8.74 ± 0.12
6 | Cc1c[nH]c2ncnc(N3CCC(CN)(C(=O)Nc4cccc(OC(=O)N(C)C)c4)CC3)c12 [Compound 7] | – | – | 6.51 ± 0.04 | – | – | 8.17 ^d | – | microsomal CLint at 0.5 h, 4 µM [9]: 50 µL/min/mg; kinome S50 ([1]; 300 nM): 0.13 (468, 300 nM); solubility at 24 h (Thermodynamic solubility): 451 µM (≈ 204 µg/mL); Vd (In vivo DMPK, IV dosing): 6.4 L/kg; clearance (In vivo DMPK, IV dosing): 5.89 L/h/kg; half-life (In vivo DMPK, IV dosing; 0.5 mg/kg): 1.3 h; microsomal CLint at 0.5 h, 4 µM [10]: 3 µL/min/mg
7 | Cc1c[nH]c2ncnc(-c3ccc(NC(=O)N(CCO)c4ccccc4)cc3)c12 [Compound 8] | – | – | – | – | – | – | – | microsomal CLint at 0.5 h, 4 µM [9]: 18 µL/min/mg; solubility at 24 h (Thermodynamic solubility): 28 µM (≈ 10.8 µg/mL); clearance (In vivo DMPK, IV dosing): 0.252 L/h/kg; half-life (In vivo DMPK, IV dosing): 2.2 h; Vd (In vivo DMPK, IV dosing; 1 mg/kg): 0.5 L/kg; microsomal CLint at 0.5 h, 4 µM [10]: 8 µL/min/mg
8 | CCc1cccc(CC)c1NC(=O)N1Cc2n[nH]c(NC(=O)c3ccc(N4CCN(C)CC4)cc3)c2C1 [Compound 11] | 6.39 ± 0.03 | 5.10 ± 0.04 | <5 | 6.24 ± 0.04 | > 10 µM | <5 | <5 | preference between LIMK1 and LIMK2 [2]: ~10 fold; efflux ratio (Caco-2 permeability): high efflux; efflux ratio (Caco-2 permeability; human, read-out: Efflux ratio): 279
9 | Cc1cc(Nc2nc(N[C@@H](C)c3ccc(F)cc3)c(C#N)cc2F)n[nH]1 [Compound 12] | – | – | 5.18 ± 0.03 | 6.52 ± 0.01 | > 10 µM | <5 | <5 | RapidFire pIC50 LIMK1 [2]: 6.82 ± 0.06; preference between LIMK1 and LIMK2 [2]: ~10 fold; RapidFire pIC50 LIMK2 [3]: 5.71 ± 0.14; efflux ratio (Caco-2 permeability; human, read-out: Efflux ratio): 1.01
10 | Cc1cc(Nc2cc(CN3CCOCC3)c3nc(C)c(Cc4ccc(Cl)cc4F)n3n2)n[nH]1 [Compound 13, gandotinib] | 6.40 ± 0.03 | <5 | 5.22 ± 0.05 | 5.98 ± 0.06 | > 10 µM | <5 | <5 | preference between LIMK1 and LIMK2 [2]: ~10 fold; efflux ratio (Caco-2 permeability): high efflux; efflux ratio (Caco-2 permeability; human, read-out: Efflux ratio): 10.2
11 | Cn1cc(-c2[nH]c3cc(NC(=O)[C@H](N)C4CCCCC4)cc4c3c2C=NNC4=O)cn1 [Compound 16] | 6.09 ± 0.07 | <5 | 5.47 ± 0.04 | 6.76 ± 0.12 | > 10 µM | 6.56 ± 0.02 | 6.40 ± 0.04 | –
12 | CN1C(=O)[C@@H](N2CCc3c(nn(Cc4ccccc4)c3C(N)=O)C2=O)COc2cc(Cl)ccc21 [Compound 17] | – | – | – | – | – | – | – | kinome S50 ([1]; 1000 nM): 0.01 (468, 1,000 nM)
